{
  "source": "patent US7491794B2",
  "about": "“Macrocyclic compounds as inhibitors of viral replication” (Intermune, Inc., priority 2003, dated 2009)",
  "key": {"NS3-NS4A protease": {"target": "T1, NS3-NS4A protease (Hepatitis C virus genotype 1a, UniProt P27958)", "T1 construct": "Recombinant E. coli or Baculovirus full-length NS3 was diluted to 3.33 μM with assay buffer; made in house; host or cells: E. coli or baculovirus (BV) system", "T1 sequence (P27958 1027-1657)": "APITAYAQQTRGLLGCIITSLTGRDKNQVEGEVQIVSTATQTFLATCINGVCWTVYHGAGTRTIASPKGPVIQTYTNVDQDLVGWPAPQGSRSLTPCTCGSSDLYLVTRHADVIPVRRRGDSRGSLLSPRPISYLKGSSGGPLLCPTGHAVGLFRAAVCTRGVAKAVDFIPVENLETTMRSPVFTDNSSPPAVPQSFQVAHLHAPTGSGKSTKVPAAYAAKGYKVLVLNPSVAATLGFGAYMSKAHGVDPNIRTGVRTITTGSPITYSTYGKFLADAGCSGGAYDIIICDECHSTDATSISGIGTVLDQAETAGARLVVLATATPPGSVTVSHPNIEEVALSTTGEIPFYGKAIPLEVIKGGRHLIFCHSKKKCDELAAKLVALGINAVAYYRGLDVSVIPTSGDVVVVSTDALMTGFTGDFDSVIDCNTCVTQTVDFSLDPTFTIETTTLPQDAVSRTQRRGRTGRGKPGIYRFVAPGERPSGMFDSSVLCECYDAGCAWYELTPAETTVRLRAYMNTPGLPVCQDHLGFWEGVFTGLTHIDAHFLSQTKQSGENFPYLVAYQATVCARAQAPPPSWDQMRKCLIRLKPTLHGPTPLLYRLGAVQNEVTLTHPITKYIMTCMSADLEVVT", "assay": "NS3-NS4A protease assay (NS3 inhibition assay, RETS1 substrate), Section B", "format": "biochemical", "conditions": "read-out: NS3-NS4A IC50", "procedure,_shortened": "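Kinetic fluorescence read (335 nm excitation, 495 nm emission, 30 min) of RETS1 cleavage by NS3/NS4A-2 complex, 2 nM E. coli or 3 nM baculovirus NS3, after 10 min room-temperature compound pre-incubation. Four-parameter-fit IC50s converted to Ki by Cheng–Prusoff, Ki=IC50/(1+[S]/Km).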"}, "[1]": {"tested_on": "HCV sub-genomic replicon, GS4.3", "assay": "Quantitation by ELISA of NPTII in the HCV sub-genomic replicon, GS4.3, Section B", "format": "cell-based", "conditions": "Hepatitis C virus; GS4.3 cells, 72 h incubation; read-out: Replicon EC50", "source_text": "Quantitation by ELISA of the Selectable Marker Protein, Neomycin Phosphotransferase II (NPTII) in the HCV Sub-Genomic Replicon, GS4.3\nThe HCV sub-genomic replicon (1377/NS3-3′, accession No. AJ242652), stably maintained in HuH-7 hepatoma cells, was created by Lohmann et al. Science 285: 110-113 (1999). The replicon-containing cell culture, designated GS4.3, was obtained from Dr. Christoph Seeger of the Institute for Cancer Research, Fox Chase Cancer Center, Philadelphia, Pa.\nGS4.3 cells were maintained at 37° C., 5% CO2, in DMEM (Gibco 11965-092) supplemented with L-glutamine 200 mM (100×) (Gibco25030-081), non-essential amino acids (NEAA)(Biowhittaker 13-114E), heat-inactivated (HI) Fetal Bovine Serum(FBS)(Hyclone SH3007.03) and 750 μg/ml geneticin (G418)(Gibco 10131-035). Cells were sub-divided 1:3 or 4 every 2-3 days.\n24 hours prior to the assay, GS4.3 cells were collected, counted, and plated in 96-well plates (Costar 3585) at 7500 cells/well in 100 μl standard maintenance medium (above) and incubated in the conditions above. To initiate the assay, culture medium was removed, cells were washed once with PBS (Gibco 10010-023) and 90 μl Assay Medium (DMEM, L-glutamine, NEAA, 10% HI FBS, no G418) was added. Inhibitors were made as a 10× stock in Assay Medium, (3-fold dilutions from 10 μM to […] final concentration, final DMSO concentration 1%), 10 μl were added to duplicate wells, plates were rocked to mix, and incubated as above for 72 h.\nAn NPTII ELISA kit was obtained from AGDIA, Inc. (Compound direct ELISA test system for Neomycin Phosphotransferase II, PSP 73000/4800). Manufacturer's instructions were followed, with some modifications. 10×PEB-1 lysis buffer was made up to include 500 μM PMSF (Sigma P7626, 50 mM stock in isopropanol). After 72 h incubation, cells were washed once with PBS and 150 μl PEB-1 with PMSF was added per well. Plates were agitated vigorously for 15 minutes, room temperature, then frozen at −70° C. Plates were thawed, lysates were mixed thoroughly, and 100 μl were applied to an NPTII Elisa plate. A standard curve was made. Lysate from DMSO-treated control cells was pooled, serially diluted with PEB-1 with PMSF, and applied to duplicate wells of the ELISA plate, in a range of initial lysate amount of 150u1-2.5 ul. In addition, 100 μl buffer alone was applied in duplicate as a blank. Plates were sealed and gently agitated at room temperature for 2 h. Following capture incubation, the plates were washed 5×300 μl with PBS-T (0.5% Tween-20, PBS-T was supplied in the ELISA kit). For detection, a 1× dilution of enzyme conjugate diluent MRS-2 (5×) was made in PBS-T, into which 1:100 dilutions of enzyme conjugates A and B were added, as per instructions. Plates were resealed, and incubated with agitation, covered, room temperature, for 2 h. The washing was then repeated and 100 μl of room temperature TMB substrate was added. After approximately 30 minutes incubation (room temperature, agitation, covered), the reaction was stopped with 50 μl 3M sulfuric acid. Plates were read at 450 nm on a Molecular Devices Versamax plate reader.\nInhibitor effect was expressed as a percentage of DMSO-treated control signal, and inhibition curves were calculated using a 4-parameter equation: y=A+((B−A)/(1+((C/x)^D))), where C is half-maximal activity or EC50."}},
  "data": [
    {"smiles": "O=C(N[C@H]1CCCCC/C=C\\[C@@H]2C[C@@]2(C(=O)O)NC(=O)[C@@H]2C[C@@H](OC(=O)N3CCc4c(F)cccc4C3)CN2C1=O)OC1CCCC1", "note": "[AR00304074, (1S,4R,6S,14S,18R)-14-Cyclopentyloxycarbonylamino-18-(5-fluoro-3,4-dihydro-1H-isoquinoline-2-carbonyloxy)-2,15-dioxo-3,16-diaza-tricyclo[14.3.0.0^4,6]nonadec-7-ene-4-carboxylic acid]", "values": [
      {"measurement": "IC50", "setting": "NS3-NS4A protease", "value": "< 1000", "unit": "nM"},
      {"measurement": "EC50", "setting": "[1]", "value": "< 10000", "unit": "nM"}
    ]},
    {"smiles": "O=C(N[C@H]1CCCCCC=C[C@@H]2C[C@@]2(C(=O)NS(=O)(=O)C2CC2)NC(=O)[C@@H]2C[C@@H](OC(=O)N3Cc4ccccc4C3)CN2C1=O)OC1CCCC1", "note": "[AR00333831, (1S,4R,6S,14S,18R)-1,3-Dihydro-isoindole-2-carboxylic acid 14-cyclopentyloxycarbonylamino-4-cyclopropanesulfonylaminocarbonyl-2,15-dioxo-3,16-diaza-tricyclo[14.3.0.0^4,6]nonadec-7-en-18-yl ester]", "values": [
      {"measurement": "IC50", "setting": "NS3-NS4A protease", "value": "< 100", "unit": "nM"},
      {"measurement": "EC50", "setting": "[1]", "value": "< 100", "unit": "nM"}
    ]},
    {"smiles": "CC(C)(C)OC(=O)N[C@H]1CCCCC/C=C\\[C@@H]2C[C@@]2(C(=O)NS(=O)(=O)C2CC2)NC(=O)[C@@H]2C[C@@H](OC(=O)N3Cc4ccc(OCCCN5CCOCC5)cc4C3)CN2C1=O", "note": "[AR00345075, (1S,4R,6S,14S,18R)-5-(3-Morpholin-4-yl-propoxy)-1,3-dihydro-isoindole-2-carboxylic acid 14-tert-butoxycarbonylamino-4-cyclopropanesulfonylaminocarbonyl-2,15-dioxo-3,16-diaza-tricyclo[14.3.0.0^4,6]nonadec-7-en-18-yl ester]", "values": [
      {"measurement": "IC50", "setting": "NS3-NS4A protease", "value": "< 100", "unit": "nM"},
      {"measurement": "EC50", "setting": "[1]", "value": "< 1000", "unit": "nM"}
    ]},
    {"smiles": "CC(C)(C)OC(=O)N[C@H]1CCCCC/C=C\\[C@@H]2C[C@@]2(C(=O)NS(=O)(=O)c2ccc(C(=O)O)cc2)NC(=O)[C@@H]2C[C@@H](OC(=O)N3Cc4ccccc4C3)CN2C1=O", "note": "[AR00365387, (1S,4R,6S,14S,18R)-1,3-Dihydro-isoindole-2-carboxylic acid 14-tert-butoxycarbonylamino-4-(4-carboxy-benzenesulfonylaminocarbonyl)-2,15-dioxo-3,16-diaza-tricyclo[14.3.0.0^4,6]nonadec-7-en-18-yl ester]", "values": [
      {"measurement": "IC50", "setting": "NS3-NS4A protease", "value": "< 100", "unit": "nM"},
      {"measurement": "EC50", "setting": "[1]", "value": "< 100", "unit": "nM"}
    ]},
    {"smiles": "CC1(C)CN(C(=O)O[C@@H]2C[C@H]3C(=O)N[C@]4(C(=O)NS(=O)(=O)C5CC5)C[C@H]4/C=C\\CCCCC[C@H](NC(=O)O[C@H]4CCOC4)C(=O)N3C2)Cc2ccccc21", "note": "[AR00314654, (1S,4R,6S,14S,18R)-4,4-Dimethyl-3,4-dihydro-1H-isoquinoline-2-carboxylic acid 4-cyclopropanesulfonylaminocarbonyl-2,15-dioxo-14-(tetrahydro-furan-3S-yloxycarbonylamino)-3,16-diaza-tricyclo[14.3.0.0^4,6]nonadec-7-en-18-yl ester]", "values": [
      {"measurement": "IC50", "setting": "NS3-NS4A protease", "value": "< 100", "unit": "nM"},
      {"measurement": "EC50", "setting": "[1]", "value": "< 100", "unit": "nM"}
    ]},
    {"smiles": "CC(C)(C)OC(=O)N[C@H]1CCCCC/C=C\\[C@@H]2C[C@@]2(C(=O)NS(=O)(=O)C2CC2)NC(=O)[C@@H]2C[C@@H](OC(=O)N3Cc4c(F)ccc(F)c4C3)CN2C1=O", "note": "[AR00334399, (1S,4R,6S,14S,18R)-4,7-Difluoro-1,3-dihydro-isoindole-2-carboxylic acid 14-tert-butoxycarbonylamino-4-cyclopropanesulfonylaminocarbonyl-2,15-dioxo-3,16-diaza-tricyclo[14.3.0.0^4,6]nonadec-7-en-18-yl ester]", "values": [
      {"measurement": "IC50", "setting": "NS3-NS4A protease", "value": "< 100", "unit": "nM"},
      {"measurement": "EC50", "setting": "[1]", "value": "< 100", "unit": "nM"}
    ]},
    {"smiles": "CN(C)c1ccc(S(=O)(=O)NC(=O)[C@@]23C[C@H]2/C=C\\CCCCC[C@H](NC(=O)OC(C)(C)C)C(=O)N2C[C@H](OC(=O)N4Cc5ccccc5C4)C[C@H]2C(=O)N3)cc1", "note": "[AR00365572, (1S,4R,6S,14S,18R)-1,3-Dihydro-isoindole-2-carboxylic acid 14-tert-butoxycarbonylamino-4-(4-dimethylamino-benzenesulfonylaminocarbonyl)-2,15-dioxo-3,16-diaza-tricyclo[14.3.0.0^4,6]nonadec-7-en-18-yl ester]", "values": [
      {"measurement": "IC50", "setting": "NS3-NS4A protease", "value": "< 100", "unit": "nM"},
      {"measurement": "EC50", "setting": "[1]", "value": "< 100", "unit": "nM"}
    ]},
    {"smiles": "CC(C)(C)OC(=O)N[C@H]1CCCCC/C=C\\[C@@H]2C[C@@]2(C(=O)NS(=O)(=O)C2CC2)NC(=O)[C@@H]2C[C@@H](OC(=O)N3CCc4ccccc4C3)CN2C1=O", "note": "[AR00261408, (1S,4R,6S,14S,18R)-3,4-Dihydro-1H-isoquinoline-2-carboxylic acid 14-tert-butoxycarbonylamino-4-cyclopropanesulfonylaminocarbonyl-2,15-dioxo-3,16-diaza-tricyclo[14.3.0.0^4,6]nonadec-7-en-18-yl ester]", "values": [
      {"measurement": "IC50", "setting": "NS3-NS4A protease", "value": "< 100", "unit": "nM"},
      {"measurement": "EC50", "setting": "[1]", "value": "< 100", "unit": "nM"}
    ]},
    {"smiles": "CC(C)(C)NC(=O)N[C@H]1CCCCC/C=C\\[C@@H]2C[C@@]2(C(=O)O)NC(=O)[C@@H]2C[C@@H](OC(=O)N3Cc4cc(Cl)c(Cl)cc4C3)CN2C1=O", "note": "[AR00320450, (1S,4R,6S,14S,18R)-14-(3-tert-Butyl-ureido)-18-(5,6-dichloro-1,3-dihydro-isoindole-2-carbonyloxy)-2,15-dioxo-3,16-diaza-tricyclo[14.3.0.0^4,6]nonadec-7-ene-4-carboxylic acid]", "values": [
      {"measurement": "IC50", "setting": "NS3-NS4A protease", "value": "< 1000", "unit": "nM"},
      {"measurement": "EC50", "setting": "[1]", "value": "< 10000", "unit": "nM"}
    ]},
    {"smiles": "O=C(N[C@H]1CCCCC/C=C\\[C@@H]2C[C@@]2(C(=O)NS(=O)(=O)C2CC2)NC(=O)[C@@H]2C[C@@H](OC(=O)N3CCc4ccccc4[C@@H]3CN3CCCCC3)CN2C1=O)OC1CCCC1", "note": "[AR00320556, (1S,4R,6S,14S,18R)-1-Piperidin-1R-ylmethyl-3,4-dihydro-1H-isoquinoline-2-carboxylic acid 14-cyclopentyloxycarbonylamino-4-cyclopropanesulfonylaminocarbonyl-2,15-dioxo-3,16-diaza-tricyclo[14.3.0.0^4,6]nonadec-7-en-18-yl ester]", "values": [
      {"measurement": "IC50", "setting": "NS3-NS4A protease", "value": "< 100", "unit": "nM"},
      {"measurement": "EC50", "setting": "[1]", "value": "< 100", "unit": "nM"}
    ]},
    {"smiles": "O=C(N[C@H]1CCCCC/C=C\\[C@@H]2C[C@@]2(C(=O)O)NC(=O)[C@@H]2C[C@@H](OC(=O)N3Cc4ccccc4C3)CN2C1=O)OC1CCCC1", "note": "[AR00304076, (1S,4R,6S,14S,18R)-14-Cyclopentyloxycarbonylamino-18-(1,3-dihydro-isoindole-2-carbonyloxy)-2,15-dioxo-3,16-diaza-tricyclo[14.3.0.0^4,6]nonadec-7-ene-4-carboxylic acid]", "values": [
      {"measurement": "IC50", "setting": "NS3-NS4A protease", "value": "< 100", "unit": "nM"},
      {"measurement": "EC50", "setting": "[1]", "value": "< 1000", "unit": "nM"}
    ]},
    {"smiles": "O=C(NC1CCCC1)N[C@H]1CCCCC/C=C\\[C@@H]2C[C@@]2(C(=O)NS(=O)(=O)C2CC2)NC(=O)[C@@H]2C[C@@H](OC(=O)N3Cc4cc(Cl)c(Cl)cc4C3)CN2C1=O", "note": "[AR00320575, (1S,4R,6S,14S,18R)-5,6-Dichloro-1,3-dihydro-isoindole-2-carboxylic acid 14-(3-cyclopentyl-ureido)-4-cyclopropanesulfonylaminocarbonyl-2,15-dioxo-3,16-diaza-tricyclo[14.3.0.0^4,6]nonadec-7-en-18-yl ester]", "values": [
      {"measurement": "IC50", "setting": "NS3-NS4A protease", "value": "< 100", "unit": "nM"},
      {"measurement": "EC50", "setting": "[1]", "value": "< 1000", "unit": "nM"}
    ]},
    {"smiles": "O=C(N[C@H]1CCCCC/C=C\\[C@@H]2C[C@@]2(C(=O)NS(=O)(=O)C2CC2)NC(=O)[C@@H]2C[C@@H](OC(=O)N3CCc4ccccc4C3)CN2C1=O)O[C@H]1CCOC1", "note": "[AR00304162, (1S,4R,6S,14S,18R)-3,4-Dihydro-1H-isoquinoline-2-carboxylic acid 4-cyclopropanesulfonylaminocarbonyl-2,15-dioxo-14-(tetrahydro-furan-3-yloxycarbonylamino)-3,16-diaza-tricyclo[14.3.0.0^4,6]nonadec-7-en-18-yl ester]", "values": [
      {"measurement": "IC50", "setting": "NS3-NS4A protease", "value": "< 100", "unit": "nM"},
      {"measurement": "EC50", "setting": "[1]", "value": "< 100", "unit": "nM"}
    ]}
  ]
}
